# According to patent US20210379056A1, “SUBSTITUTED PYRAZOLE FUSED RING DERIVATIVE, PREPARATION METHOD THEREFOR, AND APPLICATION THEREOF” (Applied Pharmaceutical Science, Inc., priority 2018, published 2021):
# Counter-ions that a name gives are not always drawn.
# Molecular target: T1, Ret wt (Homo sapiens, UniProt P07949)
# T1 construct: purchased Invitrogen PV3082
# Assay: HTRF kinase activity test, RET wild type
# Format: biochemical
# Details: Table 3; read-out: RET Enzyme (wild type) IC50
# Procedure: This test combined peptide substrates and a single proprietary monoclonal antibody with HTRF technology, which was a highly sensitive and stable technology for detecting molecular interactions of proteins. The enzyme phosphorylates the substrate, then the Eu-labeled antibody binds to the phosphorylated substrate, and streptavidin-XL665 binds to all substrates. The TR-FRET signal was generated by the HTRF principle. […] Based on this, the inhibitory effect was evaluated.
# The other compounds were diluted 3-fold gradiently with DMSO from the 10 mM stock solution to a total of 10 concentrations respectively.
# Adding 4 volumes of distilled water to 1 volume of enzyme buffer 5×; 5 mM MgCl2; 1 mM DTT.
# b) centrifuging the compound plate for 1 minute at 1000 g.
# c) sealing the test board.
# f) adding 4 μl of 1× kinase buffer to each well of the test plate, centrifuging the sample plate at 1000 g for 30 seconds, and placing it at room temperature for 10 minutes.
# g) preparing a solution of 5× TK-substrate-biotin ([…]) in kinase buffer and 5×ATP (50 μM) in kinase buffer respectively.
# h) starting the reaction by adding 2 μl STK-substrate-biotin and 2 μl ATP (prepared in the step g).
# i) centrifuging the sample plate for 30 seconds at 1000 g. Sealing the test board and placing it at room temperature for 30 minutes.
# ) centrifuging at 1000 g for 30 seconds and placing it at room temperature for 1 hour.
# The inhibition rate % was calculated as follows:
# Inhibition rate %=[1−(fluorescence signal value of test compound−fluorescence signal value of positive control)/(average ratio of negative control−average ratio of positive control)]*100%
# Ratio: generated from the measured fluorescence signal value
# The average ratio of the positive control is the average ratio of the positive control (200 nM AT13148) in the sample plate;
# The average ratio of negative controls is the average ratio of negative controls (0.1% DMSO) in the sample plate.
# GraphPad 6.0 was used to fit the logarithm of the % inhibition rate and the compound concentration into a nonlinear regression (dose response−variable slope) to calculate the IC50 value.
# T1 sequence (P07949 29-1114): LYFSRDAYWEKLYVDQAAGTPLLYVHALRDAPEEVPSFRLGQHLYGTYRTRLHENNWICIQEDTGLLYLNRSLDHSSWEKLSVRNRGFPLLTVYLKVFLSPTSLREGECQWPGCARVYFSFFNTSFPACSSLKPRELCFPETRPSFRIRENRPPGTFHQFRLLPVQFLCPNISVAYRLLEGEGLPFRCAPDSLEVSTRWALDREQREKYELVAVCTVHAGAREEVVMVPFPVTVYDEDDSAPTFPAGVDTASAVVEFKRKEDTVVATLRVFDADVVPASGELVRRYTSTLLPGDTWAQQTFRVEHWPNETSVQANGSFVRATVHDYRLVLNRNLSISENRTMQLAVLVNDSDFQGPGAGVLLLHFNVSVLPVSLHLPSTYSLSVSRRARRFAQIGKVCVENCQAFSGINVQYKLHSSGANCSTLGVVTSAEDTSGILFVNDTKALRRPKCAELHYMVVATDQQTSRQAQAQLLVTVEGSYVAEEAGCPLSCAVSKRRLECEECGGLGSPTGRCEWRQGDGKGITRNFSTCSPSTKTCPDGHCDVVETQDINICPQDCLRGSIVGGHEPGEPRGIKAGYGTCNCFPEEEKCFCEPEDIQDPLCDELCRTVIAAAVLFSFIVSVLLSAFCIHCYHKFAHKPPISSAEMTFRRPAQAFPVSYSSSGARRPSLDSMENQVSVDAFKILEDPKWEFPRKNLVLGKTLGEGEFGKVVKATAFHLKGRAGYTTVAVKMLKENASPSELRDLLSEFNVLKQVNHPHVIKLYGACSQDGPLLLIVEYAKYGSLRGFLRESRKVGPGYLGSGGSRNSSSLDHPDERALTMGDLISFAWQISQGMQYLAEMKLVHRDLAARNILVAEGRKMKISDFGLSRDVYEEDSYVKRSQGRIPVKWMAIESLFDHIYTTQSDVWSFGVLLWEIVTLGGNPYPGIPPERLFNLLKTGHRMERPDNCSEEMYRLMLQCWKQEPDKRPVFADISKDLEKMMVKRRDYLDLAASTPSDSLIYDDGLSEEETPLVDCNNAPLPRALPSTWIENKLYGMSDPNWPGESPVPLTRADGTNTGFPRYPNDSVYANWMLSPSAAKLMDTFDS
row,IC50,Compound
1,64.6 nM,"Cc1nn2cc(-c3cnn(C)c3)cc(-c3ccc(N4CCN(C(=O)Cc5ccc(F)cn5)CC4)nc3)c2c1C#N [APS071, 2-methyl-4-(6-(4-(2-(5-fluoropyridin-2-yl)acetyl)piperazin-1-yl)pyridin-3-yl)-6-(1-methyl-1H-pyrazol-4-yl)pyrazolo[1,5-a]pyridine-3-carbonitrile]"
2,78.3 nM,"Cc1nn2cc(-c3cnn(C)c3)cc(-c3ccc(N4CCC(Cc5ccccn5)CC4)nc3)c2c1C#N [APS072, 2-methyl-6-(1-methyl-1H-pyrazol-4-yl)-4-(6-(4-(pyridin-2-yl-methyl)piperidin-1-yl)pyridine-3-yl)pyrazolo[1,5-a]pyridine-3-carbonitrile]"
3,212 nM,"COc1ccc(CN2CCN(c3ccc(-c4cc(-c5cnn(C)c5)cn5nc(O)c(C#N)c45)cn3)CC2)cn1 [APS083, 2-hydroxy-4-(6-(4-((6-methoxypyridin-3-yl)methyl)piperazin-1-yl)pyridin-3-yl)-6-(1-methyl-1H-pyrazol-4-yl)pyrazolo[1,5-a]pyridine-3-carbonitrile]"
4,865 nM,"COc1ccc(CN2CCN(c3ccc(-c4cc(-c5cnn(C)c5)cn5nc(NC(C)=O)c(C#N)c45)cn3)CC2)cn1 [APS085, N-(3-cyano-4-(6-(4-((6-methoxypyridin-3-yl)methyl)piperazin-1-yl)pyridin-3-yl)-6-(1-methyl-1H-pyrazol-4-yl)pyrazolo[1,5-a]pyridin-2-yl)acetamide]"
5,234 nM,"CNc1nn2cc(-c3cnn(C)c3)cc(-c3ccc(N4CCN(Cc5ccc(OC)nc5)CC4)nc3)c2c1C#N [APS086, 2-methylamino-4-(6-(4-((6-methoxypyridin-3-yl)methyl)piperazin-1-yl)pyridin-3-yl)-6-(1-methyl-1H-pyrazol-4-yl)pyrazolo[1,5-a]pyridine-3-carbonitrile]"
6,18.9 nM,"CCOc1cc(-c2ccc(N3CC4CC(C3)N4Cc3cncc(Cl)c3)nc2)c2c(C#N)c(N)nn2c1 [APS112, 2-amino-4-(6-(6-((5-chloropyridin-3-yl)methyl)-3,6-diazabicyclo[3.1.1]heptan-3-yl)pyridine-3-yl)-6-ethoxypyrazolo[1,5-a]pyridine-3-carbonitrile]"

# Test system: TT Cell
# Assay: Cell inhibitory activity test (CCK8)
# Format: cell-based
# Details: Homo sapiens, TT, Table 3, 72 hours incubation
# Procedure: Cell Inhibitory Activity Test
# 1. preparing 90 μl of cell suspension in a 96-well plate with 4000 cells/well. Pre-incubating the culture plate in an incubator for 24 hours (37° C., 5% CO2).
# 2. adding 10 μl of test compounds of different concentrations to each well of cells, and each compound has multiple wells.
# 3. incubating the culture plate in the incubator for 72 hours.
# 4. adding 10 μl of CCK8 solution to each well (be careful not to generate bubbles in the well, otherwise they would affect the reading of the OD value).
# 5. incubating the culture plate in the incubator for 1-2 hours.
# 6. measuring the absorbance at 450 nm with a microplate reader.
# 7. according to the compound concentration and absorbance value, GraphpadPrism software was used to calculate the IC50 of each compound.
row,Compound,IC50
1,"CCN(CC)C(=O)N1CCN(c2ccc(-c3cc(-c4cnn(C)c4)cn4nc(N)c(C#N)c34)cn2)CC1 [APS016, 4-(5-(2-amino-3-cyano-6-(1-methyl-1H-pyrazol-4-yl)pyrazolo[1,5-a]pyridin-4-yl)pyridine-2-yl)-N,N-diethylpiperazine-1-carboxamide]",31.1 nM
2,Cn1cc(-c2cc(-c3ccc(N4CCN(Cc5cncc(Cl)c5)CC4)nc3)c3c(C#N)c(N)nn3c2)cn1 [APS021],120 nM
3,"COc1cccc(CN2CCN(c3ccc(-c4cc(-c5cnn(C)c5)cn5nc(N)c(C#N)c45)cn3)CC2)n1 [APS030, 2-amino-4-(6-(4-((6-methoxypyridin-2-yl)methyl)piperazin-1-yl)pyridin-3-yl)-6-(1-methyl-1H-pyrazol-4-yl)pyrazolo[1,5-a]pyridine-3-carbonitrile]",57.6 nM
4,"CN(C)c1ccc(CN2CCN(c3ccc(-c4cc(-c5cnn(C)c5)cn5nc(N)c(C#N)c45)cn3)CC2)cc1 [APS034, 2-amino-4-(6-(4-(4-(dimethylamino)benzyl)piperazin-1-yl)pyridin-3-yl)-6-(1-methyl-1H-pyrazole-4-yl)pyrazolo[1,5-a]pyridine-3-carbonitrile]",32.8 nM
5,"CN(C)c1ccc(CN2CCN(c3ccc(-c4cc(-c5cnn(C)c5)cn5nc(N)c(C#N)c45)cn3)CC2)cn1 [APS041, 2-amino-4-(6-(4-((6-(dimethylamino)pyridin-3-yl)methyl)piperazin-1-yl)pyridin-3-yl)-6-(1-methyl-1H-pyrazol-4-yl)pyrazolo[1,5-a]pyridine-3-carbonitrile]",32.8 nM
6,"Cn1cc(-c2cc(-c3ccc(N4CCN(C(=O)c5c(F)cccc5F)CC4)nc3)c3c(C#N)c(N)nn3c2)cn1 [APS062, 2-amino-4-(6-(4-(2,6-difluorobenzoyl)piperazin-1-yl)pyridin-3-yl)-6-(1-methyl-1H-pyrazole-4-yl)pyrazolo[1,5-a]pyridine-3-carbonitrile]",34.1 nM
7,"Cn1cc(-c2cc(-c3ccc(N4CCN(Cc5cnccn5)CC4)nc3)c3c(C#N)c(N)nn3c2)cn1 [APS064, 2-amino-6-(1-methyl-1H-pyrazol-4-yl)-4-(6-(4-(pyrazin-2-yl-methyl)piperazin-1-yl)pyridine-3-yl)pyrazolo[1,5-a]pyridine-3-carbonitrile]",150 nM
8,"C[C@@H]1CN(c2ccc(-c3cc(-c4cnn(C)c4)cn4nc(N)c(C#N)c34)cn2)CCN1Cc1ccccn1 [APS073, (R)-2-amino-6-(1-methyl-1H-pyrazol-4-yl)-4-(6-(3-methyl-4-(pyridin-2-yl-methyl)piperazine-1-yl)pyridin-3-yl)pyrazolo[1,5-a]pyridine-3-carbonitrile]",144 nM
9,"Cn1cc(-c2cc(-c3ccc(N4CCN(Cc5ccccc5)CC4)nc3)c3c(C#N)c(N)nn3c2)cn1 [APS074, 2-amino-4-(6-(4-benzylpiperazin-1-yl)pyridin-3-yl)-6-(1-methyl-1H-pyrazol-4-yl)pyrazolo[1,5-a]pyridine-3-carbonitrile]",25.2 nM
10,"Cn1cc(-c2cc(-c3ccc(N4CCN(Cc5cccnc5)CC4)nc3)c3c(C#N)c(N)nn3c2)cn1 [APS075, 2-amino-6-(1-methyl-1H-pyrazol-4-yl)-4-(6-(4-(pyridin-3-yl-methyl)piperazin-1-yl)pyridine-3-yl)pyrazolo[1,5-a]pyridine-3-carbonitrile]",122 nM
11,"C[C@@H]1CN(Cc2ccccn2)CCN1c1ccc(-c2cc(-c3cnn(C)c3)cn3nc(N)c(C#N)c23)cn1 [APS076, (R)-2-amino-6-(1-methyl-1H-pyrazol-4-yl)-4-(6-(2-methyl-4-(pyridin-2-yl-methyl)piperazine-1-yl)pyridin-3-yl)pyrazolo[1,5-a]pyridine-3-carbonitrile]",96.4 nM
12,"Cn1cc(-c2cc(-c3ccc(N4CCN(Cc5ccc(F)cc5)CC4)nc3)c3c(C#N)c(N)nn3c2)cn1 [APS077, 2-amino-4-(6-(4-(4-fluorobenzyl)piperazin-1-yl)pyridin-3-yl)-6-(1-methyl-1H-pyrazol-4-yl) pyrazolo[1,5-a]pyridine-3-carbonitrile]",58.3 nM
13,"Cn1cc(-c2cc(-c3ccc(N4CCN(Cc5ccncc5)CC4)nc3)c3c(C#N)c(N)nn3c2)cn1 [APS078, 2-amino-6-(1-methyl-1H-pyrazol-4-yl)-4-(6-(4-(pyridin-4-yl-methyl)piperazin-1-yl)pyridine-3-yl)pyrazolo[1,5-a]pyridine-3-carbonitrile]",57.1 nM
14,"Cn1cc(-c2cc(-c3ccc(N4CCN(Cc5ccc(F)c(F)c5)CC4)nc3)c3c(C#N)c(N)nn3c2)cn1 [APS079, 2-amino-4-(6-(4-(3,4-difluorobenzyl)piperazin-1-yl)pyridin-3-yl)-6-(1-methyl-1H-pyrazole-4-yl)pyrazolo[1,5-a]pyridine-3-carbonitrile]",120 nM
15,"COc1ccc(CN2CCN(c3ccc(-c4cc(-c5cnn(C)c5)cn5nc(F)c(C#N)c45)cn3)CC2)cn1 [APS084, 2-fluoro-4-(6-(4-((6-methoxypyridin-3-yl)methyl)piperazin-1-yl)pyridin-3-yl)-6-(1-methyl-1H-pyrazol-4-yl)pyrazolo[1,5-a]pyridine-3-carbonitrile]",342 nM
16,"COc1ccc(CN2C3CC2CN(c2cnc(-c4cc(OC[C@@H]5CNCCO5)cn5nc(F)c(C#N)c45)cn2)C3)cn1 [APS088, 2-fluoro-4-(5-(6-((6-methoxypyridin-3-yl)methyl)-3,6-diazabicyclo[3.1.1]heptan-3-yl)pyrazin-2-yl)-6-(((S)-morpholin-2-yl)methoxy)pyrazolo[1,5-a]pyridine-3-carbonitrile trifluoroacetate]",265 nM
17,"COc1ccc(CN2C3CC2CN(c2ccc(-c4cc(OCC(C)(C)OC)cn5nc(N)c(C#N)c45)cn2)C3)cn1 [APS110, 2-amino-6-(2-methoxy-2-methylpropoxy)-4-(6-(6-((6-methoxypyridin-3-yl)methyl)-3,6-diazabicyclo[3.1.1]heptan-3-yl)pyridin-3-yl)pyrazolo[1,5-a]pyridine-3-carbonitrile]",198 nM
